Results as given in ChEMBL document CHEMBL5465560, “Selectivity Literature for EUbOPEN Chemogenomic Library” (2024).

Key:
[1] = molecular target: Ribosomal protein S6 kinase beta-1 (Homo sapiens, UniProt P23443); assay: Selectivity interaction (KinomeScan (DiscoverX)) EUB0000229b RPS6KB1; details: at 10 µM
[2] = molecular target: Tyrosine-protein kinase Fer (Homo sapiens) (UniProt P16591); assay: Selectivity interaction (KinomeScan (DiscoverX)) EUB0001079a FER; details: at 1 µM
[3] = molecular target: T1, Serine/threonine-protein kinase DCLK2 (Homo sapiens) (UniProt Q8N568); assay: Selectivity interaction (KinomeScan (DiscoverX)) EUB0001079a DCLK2; details: at 1 µM
T1 sequence (whole entry): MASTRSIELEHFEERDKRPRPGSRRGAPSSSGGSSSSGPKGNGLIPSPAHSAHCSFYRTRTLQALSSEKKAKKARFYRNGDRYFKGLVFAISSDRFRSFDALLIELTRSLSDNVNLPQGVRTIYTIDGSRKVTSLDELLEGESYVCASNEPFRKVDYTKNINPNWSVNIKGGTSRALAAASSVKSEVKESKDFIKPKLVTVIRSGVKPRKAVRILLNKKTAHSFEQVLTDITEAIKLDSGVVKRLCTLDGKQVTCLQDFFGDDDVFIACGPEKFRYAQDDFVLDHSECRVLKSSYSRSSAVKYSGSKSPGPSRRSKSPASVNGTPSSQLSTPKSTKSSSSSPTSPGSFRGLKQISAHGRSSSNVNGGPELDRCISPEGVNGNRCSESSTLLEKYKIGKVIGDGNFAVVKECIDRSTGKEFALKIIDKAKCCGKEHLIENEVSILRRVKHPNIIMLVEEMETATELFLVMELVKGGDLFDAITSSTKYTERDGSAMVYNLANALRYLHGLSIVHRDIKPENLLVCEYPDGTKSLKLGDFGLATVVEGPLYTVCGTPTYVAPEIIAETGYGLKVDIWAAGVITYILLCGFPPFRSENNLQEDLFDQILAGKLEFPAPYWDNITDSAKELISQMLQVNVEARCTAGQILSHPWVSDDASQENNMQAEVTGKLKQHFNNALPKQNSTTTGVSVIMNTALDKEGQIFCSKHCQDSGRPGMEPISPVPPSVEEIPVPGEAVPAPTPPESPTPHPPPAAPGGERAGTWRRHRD

[4] = molecular target: T2, Receptor-interacting serine/threonine-protein kinase 4 (Homo sapiens) (UniProt P57078); assay: Selectivity interaction (KinomeScan (DiscoverX)) EUB0000666a RIPK4; details: at 10 µM
T2 sequence (whole entry): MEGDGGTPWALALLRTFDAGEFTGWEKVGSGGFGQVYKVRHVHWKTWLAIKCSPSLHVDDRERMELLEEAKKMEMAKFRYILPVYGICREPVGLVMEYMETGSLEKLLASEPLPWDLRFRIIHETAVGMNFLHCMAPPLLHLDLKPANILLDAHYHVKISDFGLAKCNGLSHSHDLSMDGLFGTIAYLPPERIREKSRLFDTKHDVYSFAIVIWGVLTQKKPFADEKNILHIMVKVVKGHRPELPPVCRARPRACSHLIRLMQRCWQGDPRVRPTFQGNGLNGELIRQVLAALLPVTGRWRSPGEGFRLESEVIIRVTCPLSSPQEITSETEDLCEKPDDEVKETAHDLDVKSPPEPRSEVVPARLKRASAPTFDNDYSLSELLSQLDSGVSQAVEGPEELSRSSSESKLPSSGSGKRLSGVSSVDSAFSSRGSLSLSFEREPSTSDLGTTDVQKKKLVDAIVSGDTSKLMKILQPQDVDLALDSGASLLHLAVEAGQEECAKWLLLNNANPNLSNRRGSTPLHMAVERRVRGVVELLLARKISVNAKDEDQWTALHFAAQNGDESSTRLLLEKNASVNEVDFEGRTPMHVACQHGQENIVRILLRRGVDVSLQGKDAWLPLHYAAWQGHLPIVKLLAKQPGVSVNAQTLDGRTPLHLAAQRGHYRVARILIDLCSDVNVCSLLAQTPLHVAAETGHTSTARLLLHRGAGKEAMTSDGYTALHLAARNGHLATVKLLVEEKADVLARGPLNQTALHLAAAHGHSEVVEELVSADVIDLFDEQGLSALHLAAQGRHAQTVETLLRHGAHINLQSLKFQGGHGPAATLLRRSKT

[5] = molecular target: Fibroblast growth factor receptor 4 (Homo sapiens, UniProt P22455); assay: Selectivity interaction (Kinase screening (Nanosyn)) EUB0000604a FGFR4
Fibroblast growth factor receptor 4, sequence (P22455 22-802 limits assumed): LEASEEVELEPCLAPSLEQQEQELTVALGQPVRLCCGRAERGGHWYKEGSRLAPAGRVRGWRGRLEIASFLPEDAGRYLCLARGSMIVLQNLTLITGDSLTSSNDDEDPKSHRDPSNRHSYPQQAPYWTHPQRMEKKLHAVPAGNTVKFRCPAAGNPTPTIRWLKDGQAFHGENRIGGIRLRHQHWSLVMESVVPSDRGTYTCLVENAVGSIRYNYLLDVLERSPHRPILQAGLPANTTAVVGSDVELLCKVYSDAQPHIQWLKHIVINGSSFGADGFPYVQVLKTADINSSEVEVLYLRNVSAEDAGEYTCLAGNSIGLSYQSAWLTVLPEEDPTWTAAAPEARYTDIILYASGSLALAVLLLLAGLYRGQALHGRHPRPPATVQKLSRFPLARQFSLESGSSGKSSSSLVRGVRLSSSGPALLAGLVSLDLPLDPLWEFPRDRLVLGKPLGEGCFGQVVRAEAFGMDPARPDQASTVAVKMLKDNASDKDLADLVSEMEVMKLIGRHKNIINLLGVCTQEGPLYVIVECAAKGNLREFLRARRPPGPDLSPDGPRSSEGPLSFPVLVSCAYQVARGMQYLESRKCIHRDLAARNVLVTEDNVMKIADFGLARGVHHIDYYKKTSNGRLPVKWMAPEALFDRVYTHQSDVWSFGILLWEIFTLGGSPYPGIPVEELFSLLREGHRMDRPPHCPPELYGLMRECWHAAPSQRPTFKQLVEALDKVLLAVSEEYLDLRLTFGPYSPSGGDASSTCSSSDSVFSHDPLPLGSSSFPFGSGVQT

[6] = molecular target: G protein-coupled receptor kinase 4 (Homo sapiens) (UniProt P32298); assay: Selectivity interaction (KinomeScan (DiscoverX)) EUB0001049a GRK4; details: at 1 µM
G protein-coupled receptor kinase 4 (Homo sapiens), sequence (P32298 whole entry, looked up): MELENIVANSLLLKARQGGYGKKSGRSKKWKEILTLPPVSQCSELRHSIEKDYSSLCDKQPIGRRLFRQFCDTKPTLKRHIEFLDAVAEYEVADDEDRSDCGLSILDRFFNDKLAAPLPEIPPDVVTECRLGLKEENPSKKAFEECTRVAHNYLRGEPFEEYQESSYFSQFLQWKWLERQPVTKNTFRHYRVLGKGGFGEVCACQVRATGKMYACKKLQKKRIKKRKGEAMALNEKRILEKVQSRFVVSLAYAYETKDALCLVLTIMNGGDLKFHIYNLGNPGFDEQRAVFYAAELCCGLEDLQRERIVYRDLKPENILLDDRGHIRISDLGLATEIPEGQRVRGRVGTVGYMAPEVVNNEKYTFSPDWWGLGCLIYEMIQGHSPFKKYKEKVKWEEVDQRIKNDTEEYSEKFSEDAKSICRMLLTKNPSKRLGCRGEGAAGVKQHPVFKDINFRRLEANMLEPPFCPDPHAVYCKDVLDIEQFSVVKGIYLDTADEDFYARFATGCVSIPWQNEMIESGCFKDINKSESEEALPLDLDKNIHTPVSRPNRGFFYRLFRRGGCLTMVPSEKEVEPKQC

[7] = molecular target: T3, Tyrosine-protein kinase ZAP-70 (Homo sapiens, UniProt P43403); assay: Selectivity interaction (Kinase panel (33PanQinase(R) Activity Assay)) EUB0000877a ZAP70
T3 sequence (P43403 whole entry): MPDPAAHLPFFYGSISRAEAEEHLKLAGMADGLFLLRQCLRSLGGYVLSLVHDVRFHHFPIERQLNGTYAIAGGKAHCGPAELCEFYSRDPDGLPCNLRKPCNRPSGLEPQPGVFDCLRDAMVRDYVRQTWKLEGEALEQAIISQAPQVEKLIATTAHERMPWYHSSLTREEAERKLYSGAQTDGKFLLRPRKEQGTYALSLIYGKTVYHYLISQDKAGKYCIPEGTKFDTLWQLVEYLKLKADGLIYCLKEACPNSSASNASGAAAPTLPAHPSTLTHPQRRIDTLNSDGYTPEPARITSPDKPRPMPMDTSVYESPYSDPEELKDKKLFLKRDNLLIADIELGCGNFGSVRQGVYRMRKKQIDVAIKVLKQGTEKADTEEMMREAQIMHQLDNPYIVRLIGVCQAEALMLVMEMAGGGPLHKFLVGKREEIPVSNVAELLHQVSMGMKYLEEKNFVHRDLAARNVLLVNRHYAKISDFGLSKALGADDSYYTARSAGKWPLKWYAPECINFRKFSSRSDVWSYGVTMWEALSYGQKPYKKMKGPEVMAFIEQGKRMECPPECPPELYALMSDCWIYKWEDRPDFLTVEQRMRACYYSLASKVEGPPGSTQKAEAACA

[8] = molecular target: Ribosomal protein S6 kinase alpha-3 (Homo sapiens, UniProt P51812); assay: Selectivity interaction (ActivX KiNativ screen (ex vivo kinase selectivity in human PBMCs)) EUB0001619a RPS6KA3; format: cell-based; details: PBMC, at 1 µM
Ribosomal protein S6 kinase alpha-3, sequence (P51812 whole entry, canonical isoform): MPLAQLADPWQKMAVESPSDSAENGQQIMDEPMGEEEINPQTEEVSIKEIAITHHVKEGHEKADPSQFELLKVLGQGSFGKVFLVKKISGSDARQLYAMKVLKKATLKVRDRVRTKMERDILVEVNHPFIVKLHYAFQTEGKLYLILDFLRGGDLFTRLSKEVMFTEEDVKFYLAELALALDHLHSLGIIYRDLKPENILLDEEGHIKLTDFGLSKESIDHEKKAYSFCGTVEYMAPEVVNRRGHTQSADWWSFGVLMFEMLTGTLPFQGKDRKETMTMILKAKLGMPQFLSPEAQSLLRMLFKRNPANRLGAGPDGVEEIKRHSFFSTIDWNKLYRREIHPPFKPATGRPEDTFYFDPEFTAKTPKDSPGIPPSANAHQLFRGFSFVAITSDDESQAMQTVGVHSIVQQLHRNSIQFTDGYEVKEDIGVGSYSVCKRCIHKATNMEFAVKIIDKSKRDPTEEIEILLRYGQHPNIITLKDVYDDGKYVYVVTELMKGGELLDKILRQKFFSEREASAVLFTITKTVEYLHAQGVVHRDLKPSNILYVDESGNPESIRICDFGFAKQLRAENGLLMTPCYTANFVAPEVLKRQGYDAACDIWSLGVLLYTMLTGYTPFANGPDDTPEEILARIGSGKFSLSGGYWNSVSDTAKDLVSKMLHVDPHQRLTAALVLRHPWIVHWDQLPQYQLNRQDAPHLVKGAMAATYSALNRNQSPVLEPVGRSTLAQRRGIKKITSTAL

[9] = molecular target: Casein kinase I isoform epsilon (Homo sapiens, UniProt P49674); assay: Selectivity interaction (KinomeScan (DiscoverX)) EUB0001619a CSNK1E; details: at 1 µM
Casein kinase I isoform epsilon, sequence (P49674 whole entry, looked up, canonical isoform): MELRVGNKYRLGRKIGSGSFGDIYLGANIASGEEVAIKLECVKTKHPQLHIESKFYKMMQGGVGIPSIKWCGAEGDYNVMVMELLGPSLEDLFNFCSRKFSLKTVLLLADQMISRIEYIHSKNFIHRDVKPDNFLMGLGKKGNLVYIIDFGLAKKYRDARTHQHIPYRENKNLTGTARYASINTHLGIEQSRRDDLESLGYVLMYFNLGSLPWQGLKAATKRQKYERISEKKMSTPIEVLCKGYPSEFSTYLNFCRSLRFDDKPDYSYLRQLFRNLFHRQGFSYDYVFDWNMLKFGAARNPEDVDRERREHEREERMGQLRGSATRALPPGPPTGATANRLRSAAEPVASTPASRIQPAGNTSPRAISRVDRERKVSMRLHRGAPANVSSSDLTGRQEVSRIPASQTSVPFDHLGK

[10] = molecular target: Mitogen-activated protein kinase 14 (Homo sapiens, UniProt Q16539); assay: Selectivity interaction (SelectScreen profiling (Invitrogen)) EUB0000607a MAPK14; details: at 2 µM
Mitogen-activated protein kinase 14, sequence (Q16539 whole entry): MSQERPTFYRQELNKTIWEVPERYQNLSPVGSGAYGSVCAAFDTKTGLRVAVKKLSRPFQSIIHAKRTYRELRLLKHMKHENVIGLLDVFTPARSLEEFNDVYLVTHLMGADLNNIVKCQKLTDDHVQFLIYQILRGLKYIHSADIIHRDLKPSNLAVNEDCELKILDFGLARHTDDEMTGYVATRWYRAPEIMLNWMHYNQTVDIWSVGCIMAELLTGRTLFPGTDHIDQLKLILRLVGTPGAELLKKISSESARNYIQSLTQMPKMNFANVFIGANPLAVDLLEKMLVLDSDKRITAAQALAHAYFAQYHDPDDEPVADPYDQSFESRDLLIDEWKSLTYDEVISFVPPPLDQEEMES

[11] = molecular target: Serine/threonine-protein kinase 10 (Homo sapiens) (UniProt O94804); assay: Selectivity interaction (ActivX KiNativ screen (kinase selectivity in THP-1 cell lysates)) EUB0000639a STK10; format: subcellular; details: lysate, at 0.2 µM
[12] = molecular target: Serine/threonine-protein kinase Nek7 (Homo sapiens) (UniProt Q8TDX7); assay: Selectivity interaction (ActivX KiNativ screen (kinase selectivity in THP-1 cell lysates)) EUB0000639a NEK7; format: subcellular; details: lysate, at 5 µM
Serine/threonine-protein kinase Nek7 (Homo sapiens), sequence (Q8TDX7 whole entry, looked up): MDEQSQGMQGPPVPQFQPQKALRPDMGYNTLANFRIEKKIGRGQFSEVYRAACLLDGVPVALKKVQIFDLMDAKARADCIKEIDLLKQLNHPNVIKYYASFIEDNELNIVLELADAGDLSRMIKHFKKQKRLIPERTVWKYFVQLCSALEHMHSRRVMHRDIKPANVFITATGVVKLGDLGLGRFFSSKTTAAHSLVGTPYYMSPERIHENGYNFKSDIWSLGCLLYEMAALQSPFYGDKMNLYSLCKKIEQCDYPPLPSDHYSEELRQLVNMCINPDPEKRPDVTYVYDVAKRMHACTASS

Tyrosine-protein kinase Fer (Homo sapiens), sequence (P16591 whole entry, looked up): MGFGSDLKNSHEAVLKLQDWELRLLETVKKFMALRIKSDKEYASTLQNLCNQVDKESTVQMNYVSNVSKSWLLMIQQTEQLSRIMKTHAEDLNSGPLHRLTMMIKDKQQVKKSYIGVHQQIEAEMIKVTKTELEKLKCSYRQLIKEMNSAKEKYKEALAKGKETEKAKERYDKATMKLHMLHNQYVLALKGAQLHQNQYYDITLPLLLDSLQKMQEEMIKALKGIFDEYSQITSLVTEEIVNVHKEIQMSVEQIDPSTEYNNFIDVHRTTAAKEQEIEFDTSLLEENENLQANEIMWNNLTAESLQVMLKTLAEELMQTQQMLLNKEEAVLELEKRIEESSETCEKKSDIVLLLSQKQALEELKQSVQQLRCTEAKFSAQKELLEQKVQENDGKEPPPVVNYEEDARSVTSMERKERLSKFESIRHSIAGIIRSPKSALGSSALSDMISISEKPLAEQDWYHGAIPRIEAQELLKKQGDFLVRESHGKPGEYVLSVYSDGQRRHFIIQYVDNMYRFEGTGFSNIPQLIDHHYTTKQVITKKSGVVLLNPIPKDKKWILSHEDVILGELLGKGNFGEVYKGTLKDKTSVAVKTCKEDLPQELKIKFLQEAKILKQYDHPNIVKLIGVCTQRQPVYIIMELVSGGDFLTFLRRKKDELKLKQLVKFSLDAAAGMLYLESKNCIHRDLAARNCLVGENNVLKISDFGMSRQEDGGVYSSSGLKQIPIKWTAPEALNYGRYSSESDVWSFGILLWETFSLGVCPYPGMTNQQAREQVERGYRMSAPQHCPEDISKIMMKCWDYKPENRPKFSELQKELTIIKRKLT
Ribosomal protein S6 kinase beta-1, sequence (P23443 whole entry, looked up): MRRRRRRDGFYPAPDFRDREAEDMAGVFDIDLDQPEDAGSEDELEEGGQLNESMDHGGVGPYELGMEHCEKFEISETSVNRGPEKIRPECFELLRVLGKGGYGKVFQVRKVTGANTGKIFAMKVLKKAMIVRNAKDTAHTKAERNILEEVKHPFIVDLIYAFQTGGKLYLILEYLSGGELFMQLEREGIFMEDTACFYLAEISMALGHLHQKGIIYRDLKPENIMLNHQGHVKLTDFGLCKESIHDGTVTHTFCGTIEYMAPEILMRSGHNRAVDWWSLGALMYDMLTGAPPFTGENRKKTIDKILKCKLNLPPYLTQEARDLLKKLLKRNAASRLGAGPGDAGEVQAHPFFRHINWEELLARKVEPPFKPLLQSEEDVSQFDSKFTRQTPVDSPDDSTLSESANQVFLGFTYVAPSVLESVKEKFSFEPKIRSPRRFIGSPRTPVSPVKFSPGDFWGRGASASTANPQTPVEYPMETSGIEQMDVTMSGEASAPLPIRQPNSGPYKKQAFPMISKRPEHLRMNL

With `COc1cc(N(C)c2ccnc3ccc(C(F)(F)F)cc23)cc(OC)c1OC` the % binding [1] was 71%.

`Nc1cnc(N2CCc3cc(S(=O)(=O)Nc4c(F)cc(Cl)cc4F)cc(N4CCCC4=O)c32)nc1` [TP-020n] was tested, and the % of control [2] was 100% and the % of control [3] was 100%.

`O=C(NOC[C@H](O)CO)c1ccc(F)c(F)c1Nc1ccc(I)cc1F` showed a % of control [4] of 100%.

In the case of `Cc1cnc(Nc2ccc(F)cc2Cl)nc1-c1c[nH]c(C(=O)N[C@H](CO)c2cccc(Cl)c2)c1`, the % of inhibition [5] is reported as 0.3%.

`COc1cc(Nc2nc(C)cc(-c3cnn4nc(OC)ccc34)n2)cc(C(F)(F)F)c1` was tested, and the % of control [6] was 85%.

`CCC(=O)N1CC[C@H](Nc2ncnc3c2CN(c2cnc(OC)c(C(F)(F)F)c2)CC3)C1` [LENIOLISIB] gave an IC50 [7] of over 10 µM.

With `N#Cc1cccc(-c2c[nH]c3ncnc(N4CCOCC4)c23)c1` the % of inhibition [8] was 21% and the % of control [9] was 75%.

`CNC(=O)Nc1ccc(-c2nc(N3CC4CCC(C3)O4)c3cnn(C4CCC5(CC4)OCCO5)c3n2)cc1` showed a % of inhibition [10] of 11%.

Work on `CC[C@@H]1[C@H](F)C(=O)N[C@@H]1COc1nccc2cc(C(N)=O)c(OC)cc12` [ZIMLOVISERTIB] yielded a % of inhibition [11] of -43.2% and a % of inhibition [12] of -1.4%.
